We go through eight molecules from ChEMBL document CHEMBL5608237, “Merging Natural Product Structures with Pharmaceutical Leads: Unnatural Enantiomers of Estranes as Glucocorticoid Receptor Modulators That Suppress TNF-α and IL-6 Release” (J Med Chem, 2024).

Experiment [1] addresses T1, Androgen receptor (Homo sapiens, UniProt P10275).
T1 sequence (P10275 whole entry): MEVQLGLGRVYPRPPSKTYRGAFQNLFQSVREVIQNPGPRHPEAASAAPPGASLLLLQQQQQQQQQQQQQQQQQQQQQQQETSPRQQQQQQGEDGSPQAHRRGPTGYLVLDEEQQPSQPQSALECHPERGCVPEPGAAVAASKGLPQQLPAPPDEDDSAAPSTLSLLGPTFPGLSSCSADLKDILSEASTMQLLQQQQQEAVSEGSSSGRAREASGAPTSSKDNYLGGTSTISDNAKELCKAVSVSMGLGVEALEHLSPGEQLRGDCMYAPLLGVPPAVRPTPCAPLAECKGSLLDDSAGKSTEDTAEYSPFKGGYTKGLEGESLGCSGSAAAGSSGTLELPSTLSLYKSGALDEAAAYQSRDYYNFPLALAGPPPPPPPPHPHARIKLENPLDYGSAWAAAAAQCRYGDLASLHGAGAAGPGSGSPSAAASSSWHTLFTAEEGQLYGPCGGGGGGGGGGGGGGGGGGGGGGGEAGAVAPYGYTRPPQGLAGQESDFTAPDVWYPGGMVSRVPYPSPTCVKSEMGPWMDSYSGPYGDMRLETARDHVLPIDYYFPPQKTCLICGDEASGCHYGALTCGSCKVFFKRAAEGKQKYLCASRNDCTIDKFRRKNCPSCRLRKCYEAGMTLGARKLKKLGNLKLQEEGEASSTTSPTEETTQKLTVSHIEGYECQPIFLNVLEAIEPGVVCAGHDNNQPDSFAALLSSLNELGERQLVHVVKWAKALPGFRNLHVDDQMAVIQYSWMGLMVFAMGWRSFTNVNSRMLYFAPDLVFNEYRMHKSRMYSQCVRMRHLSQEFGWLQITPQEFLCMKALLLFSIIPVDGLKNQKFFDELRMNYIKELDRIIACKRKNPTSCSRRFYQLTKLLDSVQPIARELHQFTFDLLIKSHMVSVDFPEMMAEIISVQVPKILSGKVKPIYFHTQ
The experiment in a line: Antagonist activity at human androgen receptor transfected in African green monkey CV-1 cells cotransfected with genetic response element-luciferase reporter gene assessed as inhibition of 5alpha-dihydro-11-keto testosterone induced response incubated for 22 hrs by luciferase detection reagent based assay. In kind it is cell-based. Background: Reporter assays use an easily measured gene product as a stand-in for the process of interest.

The nature of experiment [2]: Inhibition of IL-6 production in recombinant human IL-1 beta induced A549 cells assessed as maximum inhibition preincubated with compound for 1 hr followed by IL-1 beta addition and measured after 20 hrs by MSD assay relative to control. The following applies: time 21 hrs. It counts as functional.
The nature of experiment [3]: Inhibition of TNF alpha production in recombinant human IL-1 beta induced A549 cells assessed as maximum inhibition preincubated with compound for 1 hr followed by IL-1 beta addition and measured after 20 hrs by MSD assay relative to control. The following applies: time 21 hrs. It counts as functional.

As to `Cc1ncncc1Nc1ccc2c(c1)CCC1=C3C[C@H](O)C[C@]3(C)CC[C@]12Cc1ccccc1`, the IC50 (commonly the concentration needed to halve the response being measured) in experiment [1] is above 10000 nM.

Turning to `Cc1ncccc1Nc1ccc2c(c1)CCC1=C3C[C@@H](O)C[C@]3(C)CC[C@]12C`, the IC50 in experiment [1] worked out at 401 nM.

For `Cc1ncncc1Nc1ccc2c(c1)CCC1=C3C[C@@H](O)C[C@]3(C)CC[C@]12Cc1ccccc1`, the IC50 in experiment [1] was above 10000 nM.

As to `Cc1ncccc1Nc1ccc2c(c1)CCC1=C3C[C@@H](O)C[C@]3(C)CC[C@]12Cc1ccccc1`, the IC50 in experiment [1] was 174 nM.

As to `CC#C[C@]1(O)CC[C@H]2[C@@H]3CCC4=CC(=O)CCC4=C3[C@@H](c3ccc(N(C)C)cc3)C[C@@]21C` [MIFEPRISTONE], the “inhibition (INH)” value in experiment [2] is below 20%.

On to `C[C@@H]1C[C@H]2[C@@H]3CCC4=CC(=O)C=C[C@]4(C)[C@@]3(F)[C@@H](O)C[C@]2(C)[C@@]1(O)C(=O)CO` [DEXAMETHASONE], for which the Imax is reported as 98% in experiment [2] and 100% in experiment [3].

For `Cc1ncccc1NC(=O)c1ccc2c(c1)CC[C@@H]1C[C@@](O)(C(F)(F)F)CC[C@@]21Cc1ccccc1` [DAGROCORAT], the “inhibition (INH)” value in experiment [2] and in experiment [3] was 60% each time.

Regarding `Cc1ncccc1NC(=O)c1ccc2c(c1)C(=O)C[C@@H]1C[C@@](O)(c3ccccc3)[C@H](O)C[C@@]21Cc1ccccc1`, the “inhibition (INH)” value in experiment [2] and in experiment [3] was 60% in each case.
